Results from patent US20230131334A1, “COMPANION DIAGNOSTIC BIOMARKERS OF EGFR INHIBITOR” (SYNTEKABIO, INC., priority 2020, published 2023).

System: A549 cell line
Test: WST-1 assay of drug responsiveness to pelitinib in A549 with LEPRE1 overexpression or inhibited expression
Format: cell-based
Details: Homo sapiens
Method: The expression level of LEPRE1 was identified by Western blot, and a test (WST-1 assay) of drug responsiveness to pelitinib was carried out. […] It was confirmed that LEPRE1 overexpression had the effect of increasing drug sensitivity to pelitinib. […] It was confirmed that the inhibited LEPRE1 expression had the effect of reducing drug sensitivity to pelitinib.
The loss-of-function effect whereby drug sensitivity to pelitinib decreases was confirmed when LEPRE1 expression was inhibited.

IC50 (A549, A549 overexpressing LEPRE1/pcDNA3.1, then treated with pelitinib): 1030 ± 40.6 nM
IC50 (A549, A549 overexpressing pcDNA3.1 (empty vector), then treated with pelitinib): 1670 ± 520 nM
IC50 (A549, A549 transfected with LEPRE1 siRNA (si2293), then treated with pelitinib): 4010 ± 1010 nM
IC50 (A549, A549 transfected with negative control, then treated with pelitinib): 1730 ± 187 nM
SMILES: CCOc1cc2ncc(C#N)c(Nc3ccc(F)c(Cl)c3)c2cc1NC(=O)/C=C/CN(C)C [pelitinib, Pelitinib]
